Earlier results, collected in patent publication US20240309009A1, “Anxiolytic Compounds, Pharmaceutical Compositions, and Methods of Treating Anxiety and Other Disorders” (Miralogx LLC, priority 2022, published 2024).
Read-outs that look alike come from different tables or passages of the source.

Columns and labels:
[1] = unlike ibogaine

| SMILES | toxicity compared with ibogaine (cell cultures) | water solubility [1] | formation of new dendrites (branches) (rat nerve cells) | formation of new spines on dendrites (rat nerve cells) | toxicity compared with ibogaine (zebrafish) | duration of effects (inhaled or injected) [min] | duration of effects (orally ingested along with a monoamine oxidase inhibitor (MAOI)) |
| --- | --- | --- | --- | --- | --- | --- | --- |
| COc1ccc2c3c([nH]c2c1)CCN(C)CC3 [TBG, Tabernanthalog] | less toxic than ibogaine | water-soluble | increased formation of new dendrites | new spines on those dendrites | less toxic than ibogaine |  |  |
| CN(C)CCc1c[nH]c2ccccc12 [DMT, N,N-Dimethyltryptamine] |  |  |  |  |  | 5 to 15 | three |
